In the supplement of paper PMC6045584:
± gives the standard deviation of the averaged measurements.

Assays:
[1] = compound: C#Cc1cccc(Nc2ncnc3cc(OCCOC)c(OCCOC)cc23)c1 [ERLOTINIB]; experiment: surviving fraction relative to DMSO-only wells; higher = less growth inhibition; details: exposure time: 5 days
Summary of the method: (§1)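 Inhibitors were tested at 0.5, 1, 5, 10, 50, 100, 500 and 1000 nM, applied continuously for five days beginning 24 hours after log-phase tumour cells were seeded at 250–500 per well in 384-well plates. CellTiter-Glo luminescence served as the viability measure, expressed as surviving fraction against the median of DMSO-only wells. Each line, screened three times, was kept only with replicate Pearson r >0.7 and median Z' >0.3.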

[2] = compound: Cc1nc(Nc2n[nH]c3c2CN(C(=O)N[C@H](CN(C)C)c2ccccc2)C3(C)C)c2sccc2n1; experiment: as above; details: exposure time: 5 days
Summary of the method: as §1

Test System | surviving fraction ([1]; 0.5 nM) | surviving fraction ([1]; 1 nM) | surviving fraction ([1]; 5 nM) | surviving fraction ([1]; 10 nM) | surviving fraction ([1]; 50 nM) | surviving fraction ([1]; 100 nM) | surviving fraction ([1]; 1000 nM) | surviving fraction ([2]; 0.5 nM) | surviving fraction ([2]; 1 nM) | surviving fraction ([2]; 5 nM) | surviving fraction ([2]; 10 nM) | surviving fraction ([2]; 50 nM) | surviving fraction ([2]; 100 nM) | surviving fraction ([2]; 500 nM) | surviving fraction ([2]; 1000 nM) | surviving fraction ([1]; 500 nM)
MDAMB453 BREAST | 1.11 ± 0.065 | 1.05 ± 0.029 | 1.11 ± 0.057 | 1.088 ± 0.0092 | 1.09 ± 0.065 | 1.06 ± 0.022 | 1.01 ± 0.026 | 1.14 ± 0.062 | 1.03 ± 0.037 | 0.648 ± 0.045 | 0.598 ± 0.018 | 0.416 ± 0.038 | 0.359 ± 0.048 | 0.23 ± 0.07 | 0.0803 ± 0.015 | 
MDAMB468 BREAST | 1.06 ± 0.052 | 0.995 ± 0.038 | 1.14 ± 0.072 | 1.05 ± 0.035 | 1.15 ± 0.12 | 1.105 ± 0.011 | 0.748 ± 0.04 | 1.054 ± 0.0091 | 0.914 ± 0.085 | 0.213 ± 0.02 | 0.19 ± 0.011 | 0.096 ± 0.004 | 0.102 ± 0.0076 | 0.0473 ± 0.0076 | 0.0353 ± 0.0015 | 0.902 ± 0.06
MFM223 BREAST | 1.44 ± 0.48 | 1.5 ± 0.64 | 1.49 ± 0.59 | 1.48 ± 0.48 | 1.16 ± 0.13 | 1.2 ± 0.039 | 1.16 ± 0.033 | 1.11 ± 0.074 | 1.03 ± 0.049 | 0.827 ± 0.015 | 0.637 ± 0.051 | 0.474 ± 0.021 | 0.349 ± 0.038 | 0.14 ± 0.013 | 0.0562 ± 0.005 | 1.22 ± 0.052
MG63 BONE |  | 1.08 ± 0.041 | 1.12 ± 0.014 | 1.1 ± 0.019 | 1.14 ± 0.045 | 1.1 ± 0.047 |  | 0.921 ± 0.038 | 0.805 ± 0.025 | 0.468 ± 0.0074 | 0.336 ± 0.024 | 0.257 ± 0.016 | 0.275 ± 0.0096 | 0.228 ± 0.015 | 0.227 ± 0.013 | 1.07 ± 0.066
MHM BONE | 1.02 ± 0.036 | 1.03 ± 0.035 |  |  | 1.04 ± 0.016 | 1.064 ± 0.001 | 0.998 ± 0.03 | 0.953 ± 0.02 | 0.935 ± 0.016 | 0.924 ± 0.034 | 0.906 ± 0.015 | 0.692 ± 0.03 | 0.664 ± 0.022 | 0.559 ± 0.023 | 0.535 ± 0.014 | 1.038 ± 0.01
NCIH441 LUNG | 1.2 ± 0.086 | 1.16 ± 0.14 | 1.09 ± 0.083 | 1.08 ± 0.12 | 1.08 ± 0.067 | 1.11 ± 0.1 | 1.17 ± 0.12 | 0.955 ± 0.014 | 0.938 ± 0.1 | 0.637 ± 0.057 | 0.632 ± 0.0076 | 0.463 ± 0.026 | 0.452 ± 0.04 | 0.379 ± 0.048 | 0.329 ± 0.018 | 0.992 ± 0.086
NOS1 BONE | 1.22 ± 0.035 |  | 1.24 ± 0.15 | 1.18 ± 0.075 | 1.33 ± 0.045 | 1.14 ± 0.094 | 0.561 ± 0.011 | 0.922 ± 0.046 | 0.847 ± 0.078 | 0.695 ± 0.051 | 0.657 ± 0.073 | 0.589 ± 0.062 | 0.559 ± 0.062 | 0.272 ± 0.043 | 0.134 ± 0.0068 | 0.827 ± 0.16
NY BONE | 1.01 ± 0.019 | 0.963 ± 0.029 |  | 1.05 ± 0.037 |  |  |  | 0.934 ± 0.041 | 0.725 ± 0.025 | 0.527 ± 0.016 | 0.467 ± 0.031 | 0.447 ± 0.014 | 0.402 ± 0.018 | 0.258 ± 0.011 | 0.0807 ± 0.0051 | 0.983 ± 0.01
OS25HAL BONE | 0.997 ± 0.016 | 1.04 ± 0.048 | 1.02 ± 0.024 |  | 1.09 ± 0.063 | 1.17 ± 0.043 | 1 ± 0.035 | 0.983 ± 0.016 | 0.954 ± 0.024 | 0.597 ± 0.036 | 0.367 ± 0.029 | 0.281 ± 0.007 | 0.258 ± 0.015 | 0.24 ± 0.032 | 0.218 ± 0.0047 | 1.09 ± 0.027
OSHN BONE | 1.07 ± 0.029 | 1.1 ± 0.016 | 1.1 ± 0.026 | 1.07 ± 0.029 |  | 1.163 ± 0.0072 | 1.1173 ± 0.0011 | 1.06 ± 0.037 | 1.01 ± 0.019 | 0.4963 ± 0.004 | 0.361 ± 0.026 | 0.31 ± 0.017 | 0.347 ± 0.031 | 0.366 ± 0.015 | 0.279 ± 0.018 | 1.161 ± 0.001
PCI30 HEADNECK | 1.05 ± 0.12 |  | 1.12 ± 0.066 | 1.07 ± 0.078 |  | 0.951 ± 0.1 | 0.508 ± 0.029 | 0.882 ± 0.021 | 0.823 ± 0.028 | 0.579 ± 0.015 | 0.599 ± 0.038 | 0.538 ± 0.022 | 0.514 ± 0.024 | 0.344 ± 0.014 | 0.0833 ± 0.019 | 0.538 ± 0.036
RDES SOFT TISSUE | 1.21 ± 0.057 | 1.28 ± 0.14 | 1.12 ± 0.18 | 1.27 ± 0.015 |  | 1.28 ± 0.1 | 1.32 ± 0.1 | 0.764 ± 0.075 | 0.577 ± 0.1 | 1.16 ± 0.32 | 1.02 ± 0.14 | 0.756 ± 0.037 | 0.763 ± 0.1 | 0.525 ± 0.044 | 0.503 ± 0.094 | 1.24 ± 0.025
S68 BREAST | 1.05 ± 0.32 | 1.07 ± 0.37 | 0.808 ± 0.13 | 1.15 ± 0.036 | 1.14 ± 0.25 | 1.11 ± 0.3 | 0.564 ± 0.03 | 1.04 ± 0.21 | 0.77 ± 0.013 | 0.481 ± 0.066 | 0.321 ± 0.04 | 0.288 ± 0.081 | 0.318 ± 0.0098 | 0.25 ± 0.014 | 0.234 ± 0.017 | 0.743 ± 0.079
SAOS2 BONE | 1.22 ± 0.066 | 1.2 ± 0.044 | 1.18 ± 0.095 | 1.24 ± 0.035 | 1.26 ± 0.12 | 1.23 ± 0.051 | 1.05 ± 0.075 | 0.797 ± 0.0017 | 0.645 ± 0.062 | 0.509 ± 0.016 | 0.4777 ± 0.004 | 0.42 ± 0.019 | 0.376 ± 0.025 | 0.12 ± 0.018 | 0.034 ± 0.0017 | 1.09 ± 0.094
SCC36 HEADNECK |  | 0.929 ± 0.089 | 1.06 ± 0.032 | 1.07 ± 0.057 |  | 0.82 ± 0.033 | 0.397 ± 0.038 | 0.862 ± 0.084 | 0.681 ± 0.052 | 0.258 ± 0.011 | 0.188 ± 0.019 | 0.152 ± 0.011 | 0.164 ± 0.029 | 0.101 ± 0.0062 | 0.106 ± 0.0084 | 0.548 ± 0.059
SCC47 HEADNECK | 1.13 ± 0.079 | 1.11 ± 0.015 | 1.231 ± 0.0078 | 1.17 ± 0.092 | 1.15 ± 0.051 | 1.07 ± 0.021 | 0.724 ± 0.037 | 1.06 ± 0.018 | 1.08 ± 0.033 | 0.815 ± 0.029 | 0.664 ± 0.074 | 0.47 ± 0.018 | 0.432 ± 0.044 | 0.292 ± 0.03 | 0.135 ± 0.023 | 0.822 ± 0.052
SCC90 HEADNECK | 1.1 ± 0.091 | 1.1 ± 0.011 | 1.13 ± 0.038 | 1 ± 0.036 | 0.94 ± 0.11 | 0.82 ± 0.086 | 0.534 ± 0.057 | 0.981 ± 0.092 | 0.893 ± 0.19 | 0.516 ± 0.016 | 0.523 ± 0.027 | 0.488 ± 0.04 | 0.467 ± 0.028 | 0.185 ± 0.016 | 0.177 ± 0.034 | 0.585 ± 0.049
SG27 HEADNECK | 1 ± 0.036 | 0.979 ± 0.051 | 1.08 ± 0.062 | 1.06 ± 0.16 | 1.2 ± 0.082 | 1.1 ± 0.052 | 1.1 ± 0.065 | 0.936 ± 0.024 | 0.931 ± 0.029 | 0.64 ± 0.069 | 0.612 ± 0.066 | 0.408 ± 0.069 | 0.373 ± 0.053 | 0.199 ± 0.046 | 0.115 ± 0.01 | 1.1 ± 0.037
SG28 HEADNECK | 1.2 ± 0.12 | 1.1 ± 0.021 | 1.13 ± 0.07 |  |  | 1.097 ± 0.0071 | 1.23 ± 0.1 | 0.97 ± 0.064 | 1 ± 0.056 | 0.818 ± 0.009 | 0.716 ± 0.039 | 0.667 ± 0.051 | 0.523 ± 0.063 | 0.186 ± 0.0036 | 0.049 ± 0.0053 | 0.546 ± 0.052
